Legend:
DGK [1] = conditions: freshly isolated human TIL, renal cell cancers; cited from earlier work
DGK [2] = experiment: DGK inhibitor effect on killing activity of human CAR-TIL; assay type: cell-based; conditions: preliminary observations
Protocol: In addition, experiments were conducted to mimic potential human trials in which mice with established tumors were injected intravenously with 10^7 wild type T cells or the three types of DGK knockout T cells. […] Preliminary relevant observations in human CAR T cells have been recorded using a commercially available DGK inhibitor (R59022). Human mesothelin-CAR T cells mixed with human mesothelin tumor cells (at a 1:1 ratio) were injected into immunodeficient mice. The tumor growth was slowed, but not prevented by the CAR-T cells. After 2-3 weeks, tumors were harvested and the human CAR-T cells were purified. When these T cells (Tumor infiltrating lymphocytes, or TILs) are allowed to react with fresh tumors, they can kill only 5-10% of the tumor cells showing they are hypofunctional compared to freshly made CAR-T cells which kill 70% of tumor cells (FIG. 15).

DGK [3] = experiment: Lysis of EM-meso-luc cells by antigen-exposed human mesoCAR T cells with or without DGK inhibitors; assay type: cell-based; conditions: 5 μg/mL inhibitor, 18 hours, after 96 hours exposure to EM-meso
Protocol: Primary human T cells were obtained and mock infected or transduced with lentivirus expressing mesoCAR as previously described (Moon et al., 2011, Clin Cancer Res 17:4719-30). A total of 5×10^6 T cells were subsequently added to 24-well plates that had been seeded with 5×10^5 cells either from the epithelial mesothelioma (EM) human mesothelioma line or a stable derivative cell line, EM-meso, engineered to express high levels of mesothelin, in a 24-well dish. […] Cells were assessed for viability using Trypan blue, and 1×10^5 live T cells were cocultured with 5×10^3 EM-meso-luc cells expressing luciferase in 96-well plates in the presence or absence of the DGK inhibitors DGK1 (R59022) or DGK2 (R59949; Sigma) at 5 μg/mL. After 18 hours, remaining tumor cells were washed and lysed, and luminescence was evaluated. Cell lysate determinations were corroborated with visual estimate of remaining numbers of tumor cells.

Row | SMILES | TIL function (DGK [1]) | function (killing activity) of human CAR-TIL (DGK [2]) | cytotoxicity of mesothelin-exposed mesoCAR T cells (DGK [3])
1 | Cc1nc2sccn2c(=O)c1CCN1CCC(=C(c2ccccc2)c2ccc(F)cc2)CC1 [R59022] | improve TIL function | augments function | reverse the impaired cytotoxicity
2 | O=c1c2ccccc2[nH]c(=S)n1CCN1CCC(=C(c2ccc(F)cc2)c2ccc(F)cc2)CC1 [R59949] |  |  | reverse the impaired cytotoxicity
